Assay results: patent publication US12721838B2 (Henry Ford Health System, priority 2020, dated 2026)
Like-named read-outs stand apart in the source and are kept apart here.

Key:
c-JNK, caspase 3 = test: Activation of c-JNK and caspase 3; format: cell-based, human; conditions: LNCaP-ENR cells
Experimental: To explore the underlying mechanism of DCV-induced apoptosis in ERPC cells, the effect of DCV on Jun N-terminal kinases (JNKs) was analyzed. JNKs play a critical role in apoptotic pathways. […] Both caspase-dependent and caspase-independent apoptotic cell death processes are known.

luciferase = molecular target: T1, luciferase (Renilla reniformis, UniProt P27652); test: Counter-screen with control luciferase-transfected HFF cells; format: cell-based
T1 construct: expressed in transfected cells; host or cells: human foreskin fibroblasts (HFF)
T1 sequence (P27652 1-311): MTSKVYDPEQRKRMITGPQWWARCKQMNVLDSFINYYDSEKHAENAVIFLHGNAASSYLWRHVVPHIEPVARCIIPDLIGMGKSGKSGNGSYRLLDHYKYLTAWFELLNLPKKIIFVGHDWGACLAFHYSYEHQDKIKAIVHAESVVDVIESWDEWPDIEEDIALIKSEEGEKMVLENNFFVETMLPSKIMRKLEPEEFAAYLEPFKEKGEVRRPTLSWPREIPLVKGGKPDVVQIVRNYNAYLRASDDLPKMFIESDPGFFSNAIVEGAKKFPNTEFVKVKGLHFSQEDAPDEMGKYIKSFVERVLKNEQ
Experimental: Human foreskin fibroblast cells (HFF) cells were transfected with a Trib2-Luciferase (Luc-Trib2) fusion construct. Cells were plated in 96-well tissue culture plates and treated with compounds (10 μM) for 24 hours. Luciferase activity was measured using an EnduRen™ Live cell substrate kit (commercially available from PROMEGA CORP.®, Madison, WI). […] For further development, selected compounds were counter-screened with control luciferase-transfected HFF cells.
The main hurdle to develop agents to inhibit Trib2 is the lack of a quick and easy assay procedure to effectively screen large number of compounds. To overcome this problem, the present disclosure provides a design for a new assay system to measure the active state of Trib2 protein. The present disclosure describes a Trib2-luciferase gene construct by combining the full length human Trib2 gene with the luciferase gene from Renilla. Destabilization of the three-dimensional conformation of the resultant Trib2-luc fusion protein can deliver reportable outcome via alteration in the enzymatic activity of luciferase. A second screen was designed to eliminate compounds that affects the activity of only luciferase. […] Thus, the luciferase-based assay system (involving first screen and a counter-screen) of the present disclosure emerges as an effective way to identify Trib2-targeting drugs using simple gene transfected cell lines in culture.
Here, the screening strategy used to select compounds based on inhibition of luciferase activity in Trib2-Luc cells, but not in Luc cells. Compounds screened included a representative set of 104 FDA-approved compounds on Trib2-Luciferase fusion construct-transfected HFF cells are shown here. Cells were treated with compounds (10 μM) for 24 hours and measured luciferase activity using a kit from Promega Corp. (Madison, WI). For further development selected compounds are counter-screened with control luciferase-transfected HFF cells.

[1] = molecular target: T2, Trib2-Luciferase (Luc-Trib2) fusion (Homo sapiens, UniProt Q92519); test: cell-based; conditions: HFF
T2 sequence (Q92519 with tags, fused parts or gaps): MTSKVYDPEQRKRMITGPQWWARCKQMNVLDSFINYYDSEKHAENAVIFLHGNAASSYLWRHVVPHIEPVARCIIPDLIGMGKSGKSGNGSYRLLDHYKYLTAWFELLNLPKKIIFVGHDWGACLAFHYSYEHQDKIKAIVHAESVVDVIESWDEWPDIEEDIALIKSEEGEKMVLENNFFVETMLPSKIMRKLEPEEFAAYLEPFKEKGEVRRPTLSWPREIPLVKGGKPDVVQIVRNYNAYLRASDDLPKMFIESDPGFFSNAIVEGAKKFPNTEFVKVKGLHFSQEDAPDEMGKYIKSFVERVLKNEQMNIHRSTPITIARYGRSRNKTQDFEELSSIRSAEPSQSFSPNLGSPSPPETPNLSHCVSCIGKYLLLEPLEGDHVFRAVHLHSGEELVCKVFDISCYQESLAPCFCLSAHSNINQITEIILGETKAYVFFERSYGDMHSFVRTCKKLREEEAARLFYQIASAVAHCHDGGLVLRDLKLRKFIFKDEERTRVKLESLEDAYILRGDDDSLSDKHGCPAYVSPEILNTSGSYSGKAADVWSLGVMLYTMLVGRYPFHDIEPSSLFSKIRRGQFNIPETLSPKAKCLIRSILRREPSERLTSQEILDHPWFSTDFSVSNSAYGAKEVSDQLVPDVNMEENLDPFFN

ERPC cells = test: DNA degradation assay; format: cell-based, human
Text: FIG. 17 depicts a graph showing the apoptotic effects of DCV as measured by DNA degradation assay.

LNCaP-ENR cells = test: Cell cycle distribution; format: cell-based, human; conditions: ERPC cells; FIG. 16 at 8 μM
p-glycoprotein (PGP) = p-glycoprotein (PGP) (Homo sapiens, UniProt P08183); conditions: cited from earlier work
p-glycoprotein (PGP), sequence (P08183 whole entry): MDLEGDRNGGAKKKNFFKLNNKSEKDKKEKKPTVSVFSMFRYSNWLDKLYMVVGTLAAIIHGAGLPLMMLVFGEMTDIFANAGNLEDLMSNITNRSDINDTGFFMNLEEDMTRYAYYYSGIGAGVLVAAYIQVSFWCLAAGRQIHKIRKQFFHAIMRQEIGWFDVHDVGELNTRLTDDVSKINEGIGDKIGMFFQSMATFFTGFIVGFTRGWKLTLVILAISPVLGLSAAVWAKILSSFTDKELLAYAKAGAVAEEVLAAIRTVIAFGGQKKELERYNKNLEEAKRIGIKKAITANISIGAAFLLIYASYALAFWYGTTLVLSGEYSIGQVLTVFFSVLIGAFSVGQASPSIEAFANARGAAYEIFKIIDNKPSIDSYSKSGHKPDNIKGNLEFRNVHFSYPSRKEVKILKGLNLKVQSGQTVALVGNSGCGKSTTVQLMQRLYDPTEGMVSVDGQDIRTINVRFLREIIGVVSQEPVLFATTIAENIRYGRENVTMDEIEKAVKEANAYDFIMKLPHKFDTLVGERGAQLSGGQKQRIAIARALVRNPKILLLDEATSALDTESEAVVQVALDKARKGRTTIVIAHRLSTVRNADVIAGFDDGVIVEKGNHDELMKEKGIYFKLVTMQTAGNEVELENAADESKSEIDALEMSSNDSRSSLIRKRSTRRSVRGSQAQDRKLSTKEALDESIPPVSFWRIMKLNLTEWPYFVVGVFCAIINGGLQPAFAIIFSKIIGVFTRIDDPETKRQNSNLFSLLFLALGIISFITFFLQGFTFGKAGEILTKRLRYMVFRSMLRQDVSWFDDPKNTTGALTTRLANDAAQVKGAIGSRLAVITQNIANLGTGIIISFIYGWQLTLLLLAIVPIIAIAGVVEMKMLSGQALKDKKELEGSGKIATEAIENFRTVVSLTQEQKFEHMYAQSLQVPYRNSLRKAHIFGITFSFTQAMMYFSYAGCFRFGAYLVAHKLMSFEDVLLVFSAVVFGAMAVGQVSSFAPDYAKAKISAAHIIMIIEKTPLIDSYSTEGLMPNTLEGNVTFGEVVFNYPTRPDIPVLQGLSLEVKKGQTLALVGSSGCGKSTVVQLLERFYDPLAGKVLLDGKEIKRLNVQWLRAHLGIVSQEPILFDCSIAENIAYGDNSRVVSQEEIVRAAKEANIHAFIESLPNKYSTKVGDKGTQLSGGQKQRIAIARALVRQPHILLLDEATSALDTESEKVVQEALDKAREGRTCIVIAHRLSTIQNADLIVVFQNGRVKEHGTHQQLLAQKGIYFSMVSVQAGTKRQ

[2] = in vivo; cited from earlier work

For `COC(=O)N[C@H](C(=O)N1CCC[C@H]1c1nc(-c2ccc(-c3ccc(-c4c[nH]c([C@@H]5CCCN5C(=O)[C@@H](NC(=O)OC)C(C)C)n4)cc3)cc2)c[nH]1)C(C)C` [Daclatasvir, 4,4′-bis[2-((2S)-1-{(2S)-2-[(methoxycarbonyl)amino]-3-methylbutanoyl}-2-pyrrolidinyl)-1H-imidazol-4-yl]-1,1′-biphenyl], the “activation of caspase 3” value (c-JNK, caspase 3) was “induces activation”, the “activation of c-JNK” value (c-JNK, caspase 3; dose-dependent) was “rapid and robust activation” and the “inhibition of control luciferase activity (counter-screen, without Trib2)” value (shortened to “inhibition … (counter-screen, without Trib2)”) (luciferase) was “passed counter-screen tests”. For the same compound, the “inhibition … (counter-screen, without Trib2)” value (luciferase; listed as DCV) was “does not inhibit control luciferase activity”, the “inhibition … (counter-screen, without Trib2)” value (luciferase; listed as daclatasvir) was “does not inhibit luciferase activity in the absence of Trib2” and the activity at 10 µM ([1]; read-out: Luciferase activity (%)) was 28%. The inhibition at 10 µM ([1]; read-out: inhibition of Trib2-luciferase activity) was > 70%, the “degradation of chromatin DNA” value (ERPC cells) was “triggers degradation of chromatin DNA to nucleosomal fragments” and the cell cycle progression (LNCaP-ENR cells) was “arresting them at G0/G1 phase”. For the same compound, the “action on p-glycoprotein (PGP)” value (p-glycoprotein (PGP)) was “inhibitor” and the “maximum tolerated dose (MTD)” value [2] was > 200 mg/kg/day.
